{"source": "patent US12440500B2", "about": "“Phytoecdysones and the derivatives thereof for use in the treatment of neuromuscular diseases” (BIOPHYTIS, priority 2019, dated 2025)", "assay_type_in_all_cases": "in vivo, mouse", "key": {"SMN protein": {"test_system": "SMN protein", "assay": "Western blot, level of expression of the SMN protein in SMA mice", "method": "(§1) The frozen muscle Plantaris was homogenized in extraction buffer by mechanical grinding. The supernatant containing the protein extract was sampled, then the protein extracts were then dosed according to the Lowry protein assay. An electrophoresis on SDS-PAGE gel was conducted, then the separated proteins were transferred onto membranes. The primary antibodies used were the following: mouse monoclonal anti-SMN (1:5,000), rabbit polyclonal anti-Ser 473 phospho-AKT (1:1000), rabbit polyclonal anti-AKT ( 1/100), rabbit monoclonal anti phospho-ERK ½ (1:500), anti-MAP Kinase ½ (ERK ½) (1:1000). […] The optical density of each specific band was quantified with image processing software by subtracting the background and by normalizing with the optical density of the β-actin bands. For the controls treated with the vehicle, the values obtained were determined at 1 and the values of the other groups were normalized in relation to these controls and expresses as a relative quantity. […] The quantitative values of pAKT at the Plantaris represent 3 mice per group treated with the vehicle (control or SMA) and 4 mice treated with BIO101. The quantitative values of pERK at the Plantaris represent at least 4 mice per group. The quantitative values of SMN represent n=2. […]"}, "[1]": {"test_system": "neuromuscular junctions of muscles soleus, plantaris and tibialis of SMA mice", "assay": "Morphological study of neuromuscular junction maturation (immunofluorescence)"}, "[2]": {"test_system": "muscles Soleus, Plantaris and Tibialis of SMA mice", "assay": "Histological analysis of muscle cross-sections (Hematoxylin-Eosin): number and cross-section surface of muscle fibers", "method": "At P11, one hour after their last gavage, the treated mice were anaesthetized with pentobarbital 1% at 6 μL/g of mouse then the extensor muscles Soleus, with a mixed typology, extensor Plantaris, with a fast typology, and flexor Tibialis, with a fast typology, were sampled in order to conduct histological or molecular studies. After sampling, the muscles Soleus, Plantaris and Tibialis were included individually in a preservation medium then frozen in cooled isopentane. For each muscle, medial cross-sections 10 μm thick were realized. These sections were stained with Hematoxyline-Eosin, dehydrated and mounted in an inclusion medium. The images of these sections were taken with a microscope (with a magnification ×200). In order to obtain images with an impression of relief, the differential interference contrast technique was used. From these images, the number of muscle fibers of each muscle and the cross-section surface of 20% of these fibers were counted using image processing software (FIG. 2)."}, "AKT": {"test_system": "AKT", "assay": "Western blot, phosphorylation of AKT in SMA mice", "method": "as §1"}, "ERK": {"test_system": "ERK", "assay": "Western blot, phosphorylation of ERK in SMA mice"}, "[3]": {"test_system": "motor neurons of the lumbar spinal cord of SMA mice", "assay": "Motor neuron count, location and soma surface (anti-ChAT immunofluorescence, lumbar spinal cord)", "method": "A quantitative and qualitative study of the populations of motor neurons on thick cross-sections of the lumbar region of the spinal cord (L1-L5) of healthy control mice or SMA treated with the vehicle or with BIO101 for 11 days was carried out via immunofluorescent labeling with Choline AcetylTransferase (ChAT) such as was described hereinabove (Biondi et al., 2008; Boyer et al., 2013). The analysis was then refined by a study of the different motor neuron sub-populations by characterizing their location in the spinal cord (lateral or medial position), as well as the distribution of the size of their soma.\nThe anesthetized mice underwent an intracardiac infusion with PBS. The spinal cords of the mice were taken, fixed then rinsed. The lumbar region of the spinal cords (L1-L5) was coated in a 4% solution of agarose. 50 μm cross-sections were made using a vibratome over the entire length of the sample. One section every 5 sections of spinal cord was then used for the immunohistochemical analyses. After a saturation with 0.1M glycine, the tissues were then permeabilized, blocked then marked with a goat polyclonal primary antibody anti-choline acetyltransferase (ChAT) ( 1/400^e). The sections are then washed then incubated with the anti-goat polyclonal secondary antibody coupled with Cyanine 3 (1:400^e). The cores are marked using Bisbenzimide ( 1/1,000^e) then the sections are washed again before being mounted with a photobleaching inhibitor of the fluorescent dyes. The specificity of the marking is verified thanks to a control marking carried out in the absence of the primary antibody.\nThe images were obtained using a camera mounted on a microscope with a magnification of ×200 and coupled to a central processing unit of the microcomputer type comprising in particular a suitable software for image acquisition. All of the counts were carried out using image processing software.\nThe quantitative analysis was then refined, on the one hand, by studying the different motor neuron sub-populations by analyzing their location in the spinal cord (lateral or medial position), and on the other hand, by studying the distribution of the surface of their soma."}, "[4]": {"conditions": "muscle Plantaris, SMA mice treated P0 to P11"}, "[5]": {"conditions": "spinal cord, SMA mice treated daily for 11 days"}}, "data": [{"smiles": "CC(C)(O)CC[C@@H](O)[C@](C)(O)[C@H]1CC[C@@]2(O)C3=CC(=O)[C@@H]4C[C@@H](O)[C@@H](O)C[C@]4(C)[C@H]3CC[C@]12C", "note": "[BIO101, 20-hydroxyecdysone]", "values": [{"measurement": "level of expression of SMN", "setting": "SMN protein; [4]", "value": "no modification"}, {"measurement": "level of SMN", "setting": "SMN protein; spinal cord, SMA mice treated for 11 days", "value": "does not allow for the restoration"}, {"measurement": "percentage of neuromuscular junctions of the perforated type", "setting": "[1]; Soleus, treated daily from birth to P10, p<0.05 versus vehicle", "value": 26.5, "unit": "%"}, {"measurement": "percentage of neuromuscular junctions of the perforated type", "setting": "[1]; Tibialis, treated daily from birth to P10, p<0.05 versus vehicle", "value": 45.7, "unit": "%"}, {"measurement": "percentage of immature plates", "setting": "[1]; all the muscles tested, treated daily from birth to P10", "value": "decrease"}, {"measurement": "percentage of neuromuscular junctions of the perforated type", "setting": "[1]; muscle plantaris, treated daily from birth to P10, p=ns versus vehicle", "value": 16.3, "unit": "%"}, {"measurement": "proportion of muscle fibers with cross-section surface greater than 300 μm^2", "setting": "[2]; Plantaris, FIG. 13B", "value": "increase"}, {"measurement": "proportion of muscle fibers with cross-section surface less than 200 μm^2", "setting": "[2]; Plantaris, FIG. 13B", "value": "decrease"}, {"measurement": "atrophy of the muscle fibers (cross-section surface) in relation to healthy control mice", "setting": "[2]; Plantaris, P11, SMA mice treated P0 to P11 (SMA vehicle 46%)", "value": 17.9, "unit": "%"}, {"measurement": "proportion of fibers with cross-section surface between 0 and 100 μm^2", "setting": "[2]; Plantaris, versus SMA vehicle", "value": "decrease"}, {"measurement": "proportion of fibers with cross-section surface between 200 and 400 μm^2", "setting": "[2]; Plantaris, versus SMA vehicle", "value": "increase"}, {"measurement": "proportion of muscle fibers with cross-section surface greater than 300 μm^2", "setting": "[2]; Soleus, FIG. 13C", "value": "increase"}, {"measurement": "proportion of muscle fibers with cross-section surface less than 200 μm^2", "setting": "[2]; Soleus, FIG. 13C", "value": "decrease"}, {"measurement": "atrophy of the muscle fibers (cross-section surface) in relation to healthy control mice", "setting": "[2]; Soleus, P11, SMA mice treated P0 to P11 (SMA vehicle 50.2%)", "value": 37.8, "unit": "%"}, {"measurement": "proportion of fibers with cross-section surface between 100 and 200 μm^2", "setting": "[2]; Soleus, versus SMA vehicle", "value": "decrease"}, {"measurement": "proportion of fibers with cross-section surface between 200 and 400 μm^2", "setting": "[2]; Soleus, versus SMA vehicle", "value": "increase"}, {"measurement": "atrophy of the muscle fibers (cross-section surface) in relation to healthy control mice", "setting": "[2]; Tibialis, P11, SMA mice treated P0 to P11 (SMA vehicle 56.1%)", "value": 32.7, "unit": "%"}, {"measurement": "number of muscle fibers", "setting": "[2]; Tibialis, SMA mice treated P0 to P11, 50 mg/kg", "value": "2,358 fibers"}, {"measurement": "increase in number of muscle fibers compared to vehicle", "setting": "[2]; Tibialis, SMA mice treated P0 to P11, p<0.05", "value": 14, "unit": "%"}, {"measurement": "proportion of fibers with cross-section surface between 400 and 800 μm^2", "setting": "[2]; Tibialis, versus SMA vehicle", "value": "significant increase"}, {"measurement": "proportion of fibers with cross-section surface between 100 and 200 μm^2", "setting": "[2]; Tibialis, versus SMA vehicle, p<0.05", "value": "decreases significantly"}, {"measurement": "phosphorylation of AKT (pAKT)", "setting": "AKT; [4]", "value": "very substantially increasing"}, {"measurement": "level of pAKT", "setting": "AKT; [5]", "value": "increasing"}, {"measurement": "level of phosphorylation of ERK (pERK)", "setting": "ERK; [4]", "value": "greatly decreased"}, {"measurement": "level of pERK", "setting": "ERK; [5]", "value": "decreasing"}, {"measurement": "loss of motor neurons in relation to healthy control mice", "setting": "[3]; 11 days of daily treatment (SMA vehicle 25%)", "value": 13, "unit": "%"}, {"measurement": "number of motor neurons per section by semi-ventral spinal cord", "setting": "[3]; 11 days of daily treatment, versus SMA vehicle, p<0.05", "value": "significantly higher"}, {"measurement": "effect on the medial motor neurons", "setting": "[3]; versus SMA vehicle", "value": "no significant effect"}, {"measurement": "number of lateral motor neurons", "setting": "[3]; versus SMA vehicle", "value": "higher"}, {"measurement": "number of small motor neurons with a soma surface less than 300 μm^2", "setting": "[3]; versus SMA vehicle, p<0.05", "value": "significantly limiting"}]}]}
